Our source for the IC50 values is patent publication US20240228491A1, “METHIONINE ADENOSYLTRANSFERASE INHIBITOR, PREPARATION METHOD THEREFOR AND APPLICATION THEREOF” (SCINNOHUB PHARMACEUTICAL CO., LTD., priority 2021, published 2024).

The structures appear in SMILES notation.

The target in the assay is MAT2a (Homo sapiens (Human), UniProt P31153). The assay can be described thus: MAT2a enzymatic activity test (colorimetric assay). As to conditions: OD620, 150 min reaction, read-out: IC50 against MAT2a. In kind it is biochemical. How it is done: The Colorimetric assay method was used to detect the IC50 value of the tested compounds on MAT2a.
Chain of MAT2a (P31153 whole entry): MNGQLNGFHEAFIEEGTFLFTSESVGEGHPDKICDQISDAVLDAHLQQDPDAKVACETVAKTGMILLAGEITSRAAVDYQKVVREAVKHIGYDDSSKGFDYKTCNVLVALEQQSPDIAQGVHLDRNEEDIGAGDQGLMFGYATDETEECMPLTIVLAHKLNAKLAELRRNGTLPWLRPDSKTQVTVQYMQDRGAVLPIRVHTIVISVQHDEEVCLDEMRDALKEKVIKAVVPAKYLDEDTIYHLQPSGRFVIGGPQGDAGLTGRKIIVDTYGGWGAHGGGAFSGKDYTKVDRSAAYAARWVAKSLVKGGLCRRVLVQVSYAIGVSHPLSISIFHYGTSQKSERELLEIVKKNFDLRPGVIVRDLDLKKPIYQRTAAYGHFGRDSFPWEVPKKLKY
The specific steps were as follows: The compounds having the test starling concentration of 1 μM or 10 μM were diluted into 10 concentration points in a 3-fold gradient. 250 nL of the solutions of the compounds to be tested with 10 different concentrations were taken and added into a 384 well plate for later use. 20 μg/mL of MAT2a enzyme solution was prepared with Assay buffer (50 mM Tris, 50 mM KCl, 10 mM MgCl2, 0.05% polyoxyethylene lauryl ether, pH 8.0). 15 μL of the MAT2a enzyme solution at 20 μg/mL was add into the wells of the compounds to be tested at different concentrations; and 15 μL of Assay buffer was added into the negative control well. An incubation was carried out for 15 minutes after shaking for mixing well. A mixed substrate solution (comprising 400 μM ATP and 600 μM L-Methionine) was prepared with Assay buffer. 10 μL of the mixed substrate solution was added to the positive control well, the compound to be tested well, and the negative control well, respectively, and the reaction began, for a reaction time of 150 min. Then, 50 μL of the reaction stop solution (BIOMOL Green™ Reagent Enzo lifesciences, Cargo No. BML-AK111-1000) was added to stop the reaction, followed by being centrifuged at 1000 rpm for 60 s and then being incubated for 15 min. OD620 was read and data were processed.
By using the log value of the concentration as the X-axis and the inhibition % as the Y-axis, the IC50 value of each compound against enzyme activity was obtained through employing the log(inhibitor) vs. response-Variable slope fitting dose-effect curve of the analysis software GraphPad Prism 5.
What is called IC50 is the concentration at which inhibition is half-maximal. With `CNc1c(-c2nccs2)c(=O)n(-c2ccccc2)c2nc(C(F)(F)F)ccc12` [Example 2, 4-(methylamino)-1-phenyl-3-(thiazol-2-yl)-7-(trifluoromethyl)-1,8-naphthyridin-2(1H)-one], the IC50 is 26.1 nM. The value for `CNc1c(-c2ncc[nH]2)c(=O)n(-c2ccccc2)c2nc(C(F)(F)F)ccc12` [Example 8, 3-(1H-imidazol-2-yl)-4-(methylamino)-1-phenyl-7-(trifluoromethyl)-1,8-naphthyridin-2(1H)-one] was 8.7 nM. The value for `CNc1c(-c2ccoc2)c(=O)n(-c2ccccc2)c2nc(C(F)(F)F)ccc12` [Example 9] was 21.4 nM; that for `CNc1c(-c2cccs2)c(=O)n(-c2ccccc2)c2nc(C(F)(F)F)ccc12` [Example 10] was 20.9 nM; that for `CNc1c(-c2ccco2)c(=O)n(-c2ccccc2)c2nc(C(F)(F)F)ccc12` [Example 11] was 21.4 nM.

For `CNc1c(-c2cncs2)c(=O)n(-c2ccc(Cl)cc2)c2nc(C(F)(F)F)ccc12` [Example 12], the IC50 turned out to be 25.8 nM.

For the compound `Cc1ccc(-c2c(N)c3ccc(C(F)(F)F)nc3n(-c3ccc(Cl)cc3)c2=O)o1` [Example 14], the half-inhibitory concentration (IC50) is 22.9 nM. With `Cc1cc(-c2c(N)c3ccc(C(F)(F)F)nc3n(-c3ccc(Cl)cc3)c2=O)on1` [Example 16] the figure was 41.9 nM; with `Nc1c(-c2ccc3cccnc3c2)c(=O)n(-c2ccc(Cl)cc2)c2nc(C(F)(F)F)ccc12` [Example 18], 51.4 nM; with `Cn1cccc1-c1c(N)c2ccc(C(F)(F)F)nc2n(-c2ccc(Cl)cc2)c1=O` [Example 28], 25.3 nM.

On to `Nc1c(-c2ccc3nncn3c2)c(=O)n(-c2ccc(Cl)cc2)c2nc(C(F)(F)F)ccc12` [Example 32], for which the IC50 was determined as 14.9 nM. The value for `Nc1c(-c2cncs2)c(=O)n(-c2ccc(Cl)cc2)c2nc(C(F)(F)F)ccc12` [Example 33] was 20.2 nM. In the case of `Nc1c(-n2ccnc2)c(=O)n(-c2ccc(Cl)cc2)c2nc(C(F)(F)F)ccc12` [Example 35], the IC50 worked out at 14.9 nM. The value for `Cn1c(N)nc2ccc(-c3c(N)c4ccc(C(F)(F)F)nc4n(-c4ccc(Cl)cc4)c3=O)cc21` [Example 37] was 20.2 nM. With `N#Cc1ccc(-c2c(N)c3ccc(C(F)(F)F)nc3n(-c3ccc(Cl)cc3)c2=O)cc1` [Example 40] the figure was 26.3 nM. With `Nc1c(-c2ccc3[nH]cnc3c2)c(=O)n(-c2ccc(Cl)cc2)c2nc(C(F)(F)F)ccc12` [Example 50] the figure was 17.2 nM; with `CS(=O)(=O)CCn1cc2cc(-c3c(N)c4ccc(C(F)(F)F)nc4n(-c4ccc(Cl)cc4)c3=O)ccc2n1` [Example 51], 16.2 nM. Take `Nc1c(-c2ccc(=O)n(CC(F)(F)F)c2)c(=O)n(-c2ccc(Cl)cc2)c2nc(C(F)(F)F)ccc12` [Example 57]: the IC50 is 17.1 nM.

Consider `Nc1c(-c2ccc3ccccc3c2)c(=O)n(-c2ccc(Cl)cc2)c2nc(C(F)(F)F)ccc12` [Example 58], for which the IC50 is 17.4 nM. With `Nc1c(-c2cc3nccnc3cn2)c(=O)n(-c2ccc(Cl)cc2)c2nc(C(F)(F)F)ccc12` [Example 59] the figure was 25.4 nM. The value for `Nc1c(-c2ccn3ncnc3c2)c(=O)n(-c2ccc(Cl)cc2)c2nc(C(F)(F)F)ccc12` [Example 60] was 17 nM; that for `COc1ccc(-c2c(N)c3ccc(C(F)(F)F)nc3n(-c3ccc(Cl)cc3)c2=O)nc1` [Example 61] was 17 nM. With `Nc1c(-c2ccc3nn[nH]c3c2)c(=O)n(-c2ccc(Cl)cc2)c2nc(C(F)(F)F)ccc12` [Example 62, 4-amino-3-(1H-benzo[d][1,2,3]triazol-6-yl)-1-(4-chlorophenyl)-7-(trifluoromethyl)-1,8-naphthyridin-2(1H)-one] the figure was 16.1 nM. Regarding `Nc1c(-c2ccccc2)c(=O)n(-c2ccc(Cl)cc2)c2nc(C(F)(F)F)ccc12` [Example 65], the IC50 turned out to be 15.2 nM. The value for `Cn1ncc2cc(-c3c(N)c4ccc(C(F)(F)F)nc4n(-c4ccc(Cl)cc4)c3=O)ccc21` [Example 66] was 16 nM; that for `Nc1c(-c2ccc3cncnc3c2)c(=O)n(-c2ccc(Cl)cc2)c2nc(C(F)(F)F)ccc12` [Example 70] was 30.5 nM. For `Nc1c(-c2ccn3cncc3c2)c(=O)n(-c2ccc(Cl)cc2)c2nc(C(F)(F)F)ccc12` [Example 71], the IC50 is 18.5 nM. The value for `CN(C)CCn1cc2cc(-c3c(N)c4ccc(C(F)(F)F)nc4n(-c4ccc(Cl)cc4)c3=O)ccc2n1` [Example 72] was 16.5 nM. The value for `CN(C)CCn1ncc2cc(-c3c(N)c4ccc(C(F)(F)F)nc4n(-c4ccc(Cl)cc4)c3=O)ccc21` [Example 73] was 18.8 nM; that for `Cn1cc(-c2c(N)c3ccc(C(F)(F)F)nc3n(-c3ccc(Cl)c(F)c3)c2=O)ccc1=O` [Example 74] was 16.4 nM. With `Cc1cc(-c2c(N)c3ccc(C(F)(F)F)nc3n(-c3ccc(Cl)cc3)c2=O)ccn1` [Example 75] the figure was 13.8 nM; with `N#Cc1cc(-c2c(N)c3ccc(C(F)(F)F)nc3n(-c3ccc(Cl)cc3)c2=O)ccn1` [Example 76], 16.3 nM. With `Nc1c(-c2ccnc(C(F)(F)F)c2)c(=O)n(-c2ccc(Cl)cc2)c2nc(C(F)(F)F)ccc12` [Example 77], the half-inhibitory concentration (IC50) stood at 13.9 nM. With `Cn1cc(-c2c(N)c3ccc(C(F)(F)F)nc3n(-c3ccc(Cl)cc3F)c2=O)ccc1=O` [Example 78] the figure was 14 nM; with `Cc1ccc(-n2c(=O)c(-n3cccn3)c(N)c3ccc(C(F)(F)F)nc32)cc1` [Example 81], 17 nM. The value for `Cc1ccc(-n2c(=O)c(-n3cncn3)c(N)c3ccc(C(F)(F)F)nc32)cc1` [Example 82] was 16 nM; that for `Nc1c(-c2ccc(F)cc2)c(=O)n(-c2ccc(Br)cc2)c2nc(C(F)(F)F)ccc12` [Example 84] was 28.2 nM; that for `COc1ccc(-c2c(N)c3ccc(C(F)(F)F)nc3n(-c3ccc(Br)cc3)c2=O)nc1` [Example 85] was 15.2 nM. The value for `Nc1c(-c2ccc3c(c2)OCO3)c(=O)n(-c2ccc(Br)cc2)c2nc(C(F)(F)F)ccc12` [Example 86] was 15.9 nM. On to `Cc1ccc(-n2c(=O)c(-c3ccc4c(c3)OCCO4)c(N)c3ccc(C(F)(F)F)nc32)cc1` [Example 88], for which the IC50 worked out at 16 nM. For the compound `Cc1ccc(-n2c(=O)c(-c3ccc4nn(C)cc4c3)c(N)c3ccc(C(F)(F)F)nc32)cc1` [Example 89], the IC50 is 16.5 nM.

As to `Cc1ccc(-n2c(=O)c(-c3ccn4ncnc4c3)c(N)c3ccc(C(F)(F)F)nc32)cc1` [Example 90], the half-maximal inhibitory concentration (IC50) came out at 16.9 nM. With `Cc1ccc(-n2c(=O)c(-c3ccnc(C)c3)c(N)c3ccc(C(F)(F)F)nc32)cc1` [Example 91], the IC50 was found to be 18 nM. With `Cn1cc2cc(-c3c(N)c4ccc(C(F)(F)F)nc4n(-c4ccc(Br)cc4)c3=O)ccc2n1` [Example 92] the figure was 17.4 nM; with `COc1ccc(-c2c(N)c3ccc(C(F)(F)F)nc3n(-c3ccc(Br)cc3)c2=O)cn1` [Example 93], 16.3 nM.
